Test results published in US20160052923A1, “PIPERAZINE AND HOMOPIPERAZINE DERIVATIVES AS HIV […]” (priority 2013, published 2016).
Where two headings read alike, the source gives them in different places.

Tested on: HIV-1 LAI envelope single-round infectious reporter virus
Assay: Single-round infectious HIV-1 LAI luciferase reporter virus infection of MT2 cells
Format: cell-based
Details: Human immunodeficiency virus 1, MT2, 72 h
From the text: • Virus production—Human embryonic Kidney cell line, 293T (HEK 293T), was propagated in Dulbecco's Modified Eagle Medium (Invitrogen, Carlsbad, Calif.) containing 10% fetal bovine serum (FBS, Sigma, St. Louis, Mo.). The human T-cell leukemia cell MT2 (AIDS Research and Reference Reagent Program, Cat. 237) was propagated in RPMI 1640 (Invitrogen, Carlsbad, Calif.) containing 10% fetal bovine serum (FBS, Hyclone, Logan, Utah) • Virus infection—Single-round infectious reporter virus was produced by co-transfecting HEK 293T cells with plasmide expressing the HIV-1 LAI envelope along with a plasmid containing an HIV-1 LAI proviral cDNA with the envelope gene replaced by a firefly luciferase reporter gene (Chen et al., Ref. 41). Transfections were performed using lipofectAMINE PLUS reagent as described by the manufacturer (Invitrogen, Carlsbad, Calif.).
• 1. MT2 cells were plated in black, 384 well plates at a cell density of 5×10^3 cells per well in 25 μl RPMI 1640 containing 10% FBS. • 2. Compound (diluted in dimethylsulfoxide and growth medium) was added to cells at 12.5 μl/well, so that the final assay concentration would be ≦50 nM. • 3. 12.5 μl of single-round infectious reporter virus in Dulbecco's Modified Eagle Medium was added to the plated cells and compound at an approximate multiplicity of infection (MOI) of 0.01, resulting in a final volume of 50 μl per well. • 4. Virus-infected cells were incubated at 37 degrees Celsius in a CO2 incubator and harvested 72 h after infection. • 5. Viral infection was monitored by measuring luciferase expression in the infected cells using a luciferase reporter gene assay kit (Steady-Glo, Promega, Madison, Wis.) as described by the manufacturer. Luciferase activity was then quantified by measuring luminescence using an EnVision Multilabel Plate Readers (PerkinElmer, Waltham, Mass.). • 6. The percent inhibition for each compound was calculated by quantifying the level of luciferase expression in cells infected in the presence of each compound as a percentage of that observed for cells infected in the absence of compound and subtracting such a determined value from 100. • 7. An EC50 provides a method for comparing the antiviral potency of the compounds of the invention. The effective concentration for fifty percent inhibition (EC50) was calculated with the Microsoft Excel Xlfit curve fitting software. For each compound, curves were generated from percent inhibition calculated at 10 different concentrations by using a four parameter logistic model (model 205). Table 1 is the key for the data in Table 2.

[1] = read-out: EC50 Group from Table 1

| Structure (SMILES) | EC50 [nM] | EC50 [1] [nM] |
| --- | --- | --- |
| O=C(C(=O)N1CCN(c2cccc3ccccc23)CC1)c1c[nH]c2c(-n3ccnn3)ncc(F)c12 [Compound 2001] | 2.97 | < 500 |
| COc1cnc(-n2cnc(C)n2)c2[nH]cc(C(=O)C(=O)N3CCN(c4ccccc4-c4nc5ccccc5s4)CC3)c12 [Compound 1010] | – | < 500 |
| COc1cnc(-n2cnc(C)n2)c2[nH]cc(C(=O)C(=O)N3CCN(c4cccc5ccncc45)CC3)c12 [Compound 2003] | – | < 500 |
| COc1cnc(-n2ccnn2)c2[nH]cc(C(=O)C(=O)N3CCN(c4ncnc5ncccc45)CC3)c12 [Compound 2007] | – | < 500 |
| COc1cnc(-n2cnc(C)n2)c2[nH]cc(C(=O)C(=O)N3CCN(C4(c5ccccn5)CC4)CC3)c12 [Compound 1003] | – | > 500 |
| COc1cnc(-n2cnc(C)n2)c2[nH]cc(C(=O)C(=O)N3CCN(C4(c5ccccc5)CC4)CC3)c12 [Compound 1002] | – | > 500 |
| CC(c1ccccc1)N1CCN(C(=O)C(=O)c2c[nH]c3c(-n4ccnn4)ncc(F)c23)CC1 (stereo not shown) [Compound 1005] | – | < 500 |
| O=C(C(=O)N1CCCN(Cc2ccccc2)CC1)c1c[nH]c2c(-n3ccnn3)ncc(F)c12 [Compound 1007] | – | < 500 |
| O=C(C(=O)N1CCN(c2cccc3cccnc23)CC1)c1c[nH]c2c(-n3ccnn3)ncc(F)c12 [Compound 2004] | – | < 500 |
| COc1cnc(-n2cnc(C)n2)c2[nH]cc(C(=O)C(=O)N3CCN(c4ncnc5ncccc45)CC3)c12 [Compound 2006] | – | < 500 |
| O=C(C(=O)N1CCCN(c2nnnn2-c2ccccc2)CC1)c1c[nH]c2c(-n3ccnn3)ncc(F)c12 [Compound 1009] | – | < 500 |
| COc1cnc(-n2cnc(C)n2)c2[nH]cc(C(=O)C(=O)N3CCN(c4cccc5cccnc45)CC3)c12 [Compound 2005] | – | < 500 |
| COc1cnc(-n2cnc(C(N)=O)n2)c2[nH]cc(C(=O)C(=O)N3CCN(c4nc5ccccn5n4)CC3)c12 [Compound 1004] | – | < 500 |
| COc1cnc(-n2cnc(C)n2)c2[nH]cc(C(=O)C(=O)N3CCN(c4nccc5cccnc45)CC3)c12 [Compound 2002] | – | < 500 |
| O=C(C(=O)N1CCN(Cc2ccccn2)CC1)c1c[nH]c2c(-n3ccnn3)ncc(F)c12 [Compound 1006] | – | < 500 |
| O=C(C(=O)N1CCCN(c2ccccn2)CC1)c1c[nH]c2c(-n3ccnn3)ncc(F)c12 [Compound 1008] | 89.4 | < 500 |
| O=C(C(=O)N1CCN(c2ncnc3ncccc23)CC1)c1c[nH]c2c(-n3ccnn3)ncc(F)c12 [Compound 2008] | 1.24 | < 500 |
| COc1cnc(-n2cnc(C)n2)c2[nH]cc(C(=O)C(=O)N3CCN(C4=NCCc5ccccc54)CC3)c12 [Compound 1001] | 0.85 | < 500 |
